Assay results: patent US8455450B2, “Methods for obtaining a therapeutically effective amount of hematopoietic precursor cells and long term engraftment thereof” (Biokine Therapeutics Ltd., priority 2006, dated 2013)
Bridge positions count the residues as written; N and C are the ends. Square brackets hold non-standard residues; d marks the D form. Peptide text beside a SMILES is read from it. * marks the point of attachment. 2Nal = N[C@@H](Cc1ccc2ccccc2c1)C(=O)O; Benzoyl(4-F) = O=C(c1ccc(F)cc1)*; Cit = NC(=O)NCCC[C@H](N)C(=O)O

Experiments:
Streptococcus A = experiment: Survival of mice upon bacterial infection in a chemotherapy model; assay type: in vivo; conditions: CPM 250 mg/kg total; Streptococcus A 10^8/mouse s.c. day 0; 4F-benzoyl-TN14003 5 mg/kg s.c., G-CSF 5 μg/mouse
Protocol: Mice received a total dose of 250 mg/kg CPM by two 0.25 ml intra-peritoneal injections scheduled at day −5 (150 mg/kg) and day −2 (100 mg/kg). Mice were subcutaneously treated with 0.2 ml of 4F-benzoyl-TN14003 (5 mg/kg), alone or in combination with G-CSF (5 μg/mouse), at the time points indicated in FIG. 15A. On day 0, Streptococcus A were subcutaneously injected (10^8/mouse) and the mice were then treated as detailed in FIG. 15A.

[1] = system: hematopoietic stem cells (HSCs); experiment: Hematopoietic stem cell assay: transplantation of mobilized blood cells into lethally irradiated mice, survival; assay type: in vivo, C57BL/6 mice; conditions: 2 h
Protocol: C57BL/6 mice, served as donors, were injected with 5 mg/kg of either 4F-benzoyl-TN14003 or AMD3100. 2 h later peripheral blood cells were collected following by ACK lysis and transferred into C57BL/6 recipient mice that were given a lethal dosing of irradiation (900 cGy) 24 h before i.v. injection of cells. A total cell obtained from 900 or 225 microliter of blood was transferred into single recipient mouse in a total volume of 200 μl PBS. Recipient mice transferred with cells obtained from blood of untreated mice or with normal BM cells were served as controls. Survival of mice was monitored for 4 months.
Although mobilization of HPCs may be of use for short-term repopulation in a transplantation setting, HSCs are required for long-term repopulation. To assess the effect of 4F-benzoyl-TN14003 on mobilization of murine HSCs, a transplantation model was used, in which donor C57Bl/6 mice were treated with 4F-benzoyl-TN14003 or AMD3100. After 2 h, blood was collected and cells isolated from an equal volume of blood obtained from each treated group (900 or 225 microliter in different experiments) were transferred for engraftment in lethally irradiated recipient C57Bl/6 mice. Survival of the recipient mice, indicative for long-term repopulating (LTR) activity and presence of HSCs, was monitored.

progenitor cells = experiment: In vitro production of colonies, colony-forming cell assay without stromal cells; assay type: cell-based; conditions: no stromal cells; 4F-benzoyl-TN14003 10-500 ng/ml, G-CSF 10-500 ng/ml
Protocol: In order to evaluate the number of progenitor cells, a colony-forming cell assay was used. Burst forming units erythrocyte (BFU-E), colony forming units granulocyte-macrophage (CFU-GM), colony forming units megakaryocytes (CFU-M), and colony forming units granulocyte-erythrocyte-monocyte-macrophage (CFU-GEMM) were assayed by plating the cells (10^5/ml) in Iscove's-modified Dulbecco's Medium (IMDM) containing 1% methylcellulose, 15% FBS, 1% bovine serum albumin (BSA), and 4F-benzoyl-TN14003 by itself (10-500 ng/ml) or in combination with G-CSF (in concentrations of 10-500 ng/ml).

[2] = system: hematopoietic progenitor cells (HPCs); experiment: Mobilization of hematopoietic progenitor cells to the blood, colony-forming cell assay; assay type: in vivo, C57BL/6 mice
neutrophils = experiment: Chemotherapy (cyclophosphamide)-induced neutropenia model, neutrophil counts; assay type: in vivo, C57BL/6 mice; conditions: cyclophosphamide 150 + 100 mg/kg i.p. days 1 and 4, treatment s.c. days 4-7 (4F-benzoyl-TN14003 5 mg/kg)
Protocol: In the chemotherapy-induced neutropenia model, a protocol as previously described was followed (Zuluaga et al., 2006). Briefly, Female C57BL/6 mice were injected intraperitoneally with 150 and 100 mg/kg of Cyclophosphamide (CPM) on days 1 and 4, respectively. Following the treatment with CPM, mice were injected s.c. with either G-CSF […], 4F-benzoyl-TN14003 (5 mg/kg) or their combination on day 4, 5, 6 and 7. Blood samples were drawn from each mouse on day 0 and two hours after G-CSF/4F-benzoyl-TN14003 injections on days 4, 5, 6 and 7. Lysis of the erythrocyte population in the blood samples was done using ACK lysis buffer. The number of neutrophils was determined by FACS after staining the cells with anti-PE-Gr-1 antibody.
Neutropenia was induced in female C57BL/6 mice by administration of a total dose of 250 mg/kg cyclophosphamide (CPM) in two 0.5 mL intraperitoneal injections scheduled at day 1 (150 mg/kg) and day 4 (100 mg/kg). The CPM protocol caused 4 days of neutropenia (from day 4 to day 8). When mice were treated with the combination of G-CSF and 4F-benzoyl-TN14003, a significant number of neutrophils was detected in the blood on day 6, as compared to mice that were treated with CPM only or with G-CSF or 4F-benzoyl-TN14003 alone (FIG. 12).

PC3 cells = experiment: MIP3α secretion by PC3 prostate cells (ELISA); assay type: cell-based
Source text: A PC3 prostate cell line that overexpresses high levels of CXCR4 was generated. […] FIG. 1A presents FACS histograms of PC3 cells (left panel) and a single cell clone with stable overexpression of CXCR4, GFP and luc genes (PC3-CXCR4.5, right panel) that were stained for the control (IgG2a-PE, full histograms) and CXCR4 (IgG2a-12G5, empty histograms) antibodies.
In this example, regulation of the chemokine MIP3α (macrophage inflammatory protein 3α) was examined. […] In FIG. 1B, PC3 (left panel) and PC3-CXCR4.5 (right panel) cells were stimulated with the indicated concentrations of CXCL12 for 48 hours and MIP3α secretion was assessed by ELISA. The results represent the average of triplicates±STDEV.
The effects of the CXCR4 antagonist AMD3100 and of 4F-benzoyl-TN14003 (4FB-TN14003), hitherto known as a CXCR4 antagonist, on MIP3α secretion were further tested. […] In FIG. 10, CXCR4 signaling in PC3 (left panel) and PC3-CXCR4.5 (right panel) cells was inhibited with anti-CXCL12 antibodies (αCXCL12) and Pertussis toxin (PTX) treatments alone or in combination with CXCL12, as indicated. Secretion of MIP3α was assessed by ELISA. The results represent the average of triplicates±STDEV.

[3] = 5 mg/kg s.c. 4F-benzoyl-TN14003 or AMD3100, 2 h, G-CSF 2.5 μg s.c. twice a day for 4 days, combination 18 h after last G-CSF
[4] = peak at 5 and 10 mg/kg s.c., 2 h

N=C(N)NCCC[C@H](NC(=O)[C@@H]1CSSC[C@H](NC(=O)[C@H](Cc2ccc3ccccc3c2)NC(=O)[C@H](CCCNC(=N)N)NC(=O)[C@H](CCCNC(=N)N)NC(=O)c2ccc(F)cc2)C(=O)N[C@@H](Cc2ccc(O)cc2)C(=O)N[C@@H](CCCNC(N)=O)C(=O)N[C@@H](CCCCN)C(=O)N[C@H](CCCCN)C(=O)N2CCC[C@H]2C(=O)N[C@@H](Cc2ccc(O)cc2)C(=O)N[C@@H](CCCNC(=N)N)C(=O)N[C@@H](CCCNC(N)=O)C(=O)N1)C(N)=O [4F-benzoyl-TN14003, 4F-benzoly-Arg-Arg-Nal-Cys-Tyr-Cit-Lys-DLys-Pro-Tyr-Arg-Cit-Cys-Arg-NH2] ({Benzoyl(4-F)}-RR[2Nal]CY[Cit]K[dK]PYR[Cit]CR-NH2; disulfide 4-13)
survival of mice after Streptococcus A infection (Streptococcus A): save the mice from death induced by the pathogen | survival of lethally irradiated recipient mice ([1]; cells from 225 microliter of blood of donors given 5 mg/kg, day 33 post transplantation): 70.6% | survival of lethally irradiated recipient mice ([1]; cells from 900 microliter of blood of donors given 5 mg/kg, until day 42 post transplantation): one hundred | production of colonies in vitro (progenitor cells): did not stimulate the production of colonies in vitro | BFU-E in blood, fold elevation of cell counts from control [2, 3]: 26 fold | CFU-GEMM in blood, fold elevation of cell counts from control [2, 3]: 44 fold | Progenitors in blood, fold elevation of cell counts from control [2, 3]: 7.1 fold | number of progenitor cells per 1 ml of blood, fold change from control ([2]; 5 mg/kg s.c., 30 min): 3.2 fold | number of progenitor cells per 1 ml of blood, fold change from control ([2]; 5 mg/kg s.c., 1 hour): 9.5 fold | BFU-E in blood, fold change from control ([2]; 5 mg/kg s.c., 1 h post injection): more than 200 fold | number of progenitor cells per 1 ml of blood, fold change from control ([2]; 5 mg/kg s.c., 2 hours): 13.6 fold | CFU-M in blood, fold change ([2]; 5 mg/kg s.c., 4 h): 4 fold | elevation in the number of progenitor cells in blood ([2]; 5 mg/kg s.c., 24 hours post-injection): almost disappeared | CFU-GM population in blood, fold elevation from control ([2]; 5 mg/kg s.c., after 2 h): 12.5 fold | number of BFU-E in blood, fold elevation from the control level ([2]; 5 and 10 mg/kg s.c., 2 h): more than 110 fold | number of progenitor cells in 1 ml of blood, fold elevation compared to non-treated mice ([2]; 5 or 10 mg/kg s.c., 2 h): ~10 fold | number of CFU-GEMM in blood, fold elevation from the control level [2, 4]: 2.5 fold | number of CFU-GM in blood, fold elevation from the control level [2, 4]: 11.8 fold | number of CFU-M in blood, fold elevation from the control level [2, 4]: 10.4 fold | number of neutrophils in blood as % of the initial number in normal (untreated) mice (neutrophils; day 6): only a mild effect | number of neutrophils in blood as % of the initial number (neutrophils; day 7): not sufficient to elevate neutrophil counts to their normal level | MIP3α secretion (PC3 cells): induced in both cell lines MIP3α secretion in an agonist manner
